According to US6713638B2, “2-amino-3-aroyl-4,5 alkylthiophenes: agonist allosteric enhancers at human A1 adenosine receptors” (priority 2001, dated 2004):
“Also recorded” adds a separate entry of the source.

Assays:
hA1AR = biological target: T1, hA1AR (Homo sapiens, UniProt P30542); experiment: Assay of AE (allosteric enhancer) activity: slowing of 125I-ABA dissociation from the A1AR-G protein ternary complex; type: binding; details: CHO-K1 membranes; for AE Score, %: 0.1 mM final AE, specifically bound 125I-ABA remaining after 10 minutes of dissociation, Mean ± SEM (N = 3); for AE activity (in words): hA1AR
T1 construct: expressed in transfected cells; membranes
T1 sequence (P30542 1-326): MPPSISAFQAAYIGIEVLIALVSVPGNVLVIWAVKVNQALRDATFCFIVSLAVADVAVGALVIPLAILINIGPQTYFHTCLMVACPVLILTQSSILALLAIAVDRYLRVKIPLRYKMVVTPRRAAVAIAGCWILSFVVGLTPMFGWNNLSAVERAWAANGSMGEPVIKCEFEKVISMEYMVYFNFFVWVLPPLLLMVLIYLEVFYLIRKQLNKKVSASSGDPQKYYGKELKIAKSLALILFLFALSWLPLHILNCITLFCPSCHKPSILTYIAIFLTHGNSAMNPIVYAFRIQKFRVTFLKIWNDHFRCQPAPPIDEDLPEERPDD
Source text: The allosteric enhancer (AE) activity was studied at the human A1AR (hA1AR) of a panel of compounds consisting of nine 2-amino-3-aroylthiophenes, (3a-i), eight 2-amino-3-benzoyl-4,5-dimethylthiophenes (13a-h), […] 3-aroyl-2-carboxy-4,5-dimethylthiophenes, (17a-e), ten 2-amino-3-benzoyl-5,6-ihydro-4H-cyclopenta[b]thiophenes, (19a-I), fourteen 2-amino-3-benzoyl-4,5,6,7-tetrahyd robenzo-[b]thiophenes, (20a-n), and fifteen 2-amino-3-benzoyl-5,6,7,8-tetrahydro-4H-cyclohepta[b]thiophenes, (21a-o). An in vitro assay employing the A1AR agonist ^125I-N^6-aminobenzyladenosine (^125I-ABA) and membranes from CHO-K1 cells stably expressing the hA1AR measured, as an index of AE activity, the ability of a candidate AE to slow the dissociation of the radioligand from the A1AR-G protein ternary complex.
The assay of AE activity consisted of three phases: formation of the ^125I-ABA-A1AR-G protein ternary complex; binding of the AE to the allosteric site, and dissociation of the complex by adding a combination of an A1AR antagonist (100 μM cyclopentyltheophylline) and 50 µM GTPγS. This procedure detects only AE activity since phase 3 (dissociation) is affected only by the allosteric activity of the test compound and is not affected by competitive antagonist activity. GTPγS is added to accelerate the dissociation process. […] The assay employed membranes from CHO-K1 cells stably expressing the hA1AR. For agonist binding to equilibrium, the incubation mixture consisted of 10 mM HEPES, pH 7.2, containing 0.5 mM MgCl2, 1 U/mL adenosine deaminase, 0.5 nM ^125I-ABA and 10 μg of membrane protein in a final volume of 100 μL. This phase of the assay was allowed to proceed to equilibrium (>90 minutes) at room temperature. At that point phase 2 was initiated by adding 50 μL of a 0.3 mM solution (0.1 mM final) of a candidate AE or DMSO vehicle to rapidly occupy the allosteric site. Stock solutions of AEs (10 mM) were prepared in DMSO. Five minutes later phase 3 was initiated by the addition of 50 μL of a solution containing 400 μM 8-cyclopentyltheophylline and 200 μM GTPγS. Ten minutes later, residual radioligand bound to Aireceptors was trapped on Whatman GF/C glass fiber filters using a Brandel cell harvester, washed 3 times over a 20 second interval and counted in a γ-counter. The percentage of specifically bound agonist remaining after 10 minutes of dissociation was used to calculate the “score” of AE activity:
AE activity score=100×(B−Bo)/(Beq−Bo)
Where B=residual binding (cpm) bound at the end of 10 minutes of dissociation in the presence of an AE, Bo=residual binding (cpm) at the end of 10 minutes of dissociation in the absence of an AE, and Beq=cpm bound at the end of phase 2. A compound with no AE activity has a score of 0 in this assay. An AE which completely arrests agonist dissociation will have a score of 100.

A1AR = biological target: T2, A1AR (Homo sapiens, UniProt P30542); experiment: A1AR antagonistic activity: competition with equilibrium binding of [3H]CPX; details: for Antagonist activity, % (% inhibition of specific equilibrium binding of [3H]8-cyclopentyl-1,3-dipropylxanthine): 100 μM, N = 3
T2 sequence (P30542 1-326): T1 sequence (P30542 1-326)
Source text: Several of the candidate AEs had substantial antagonistic activity. However, the AE and antagonist activities are unrelated (r^2=0.057, n=28).

Row | Compound | AE Score, % (hA1AR) [%] | AE activity (in words) (hA1AR) | Antagonist activity, % (% inhibition of specific equilibrium binding of [3H]8-cyclopentyl-1,3-dipropylxanthine) (A1AR) [%] | antagonist activity (in words) (A1AR; at 100 μM)
1 | 3-benzoyl-4,5-dimethylthiophene-2-carboxylic acid [Compound 17a] | 0 | – | – | –
2 | Nc1sccc1C(=O)c1cccc(F)c1 [Compound 3b] | 0 | – | – | –
3 | Nc1sccc1C(=O)c1cccc(Cl)c1 [Compound 3c] | 0 | – | – | –
4 | Nc1sccc1C(=O)c1cccc(Br)c1 [Compound 3d] | 0.2 ± 0.03 | – | – | –
5 | Nc1sccc1C(=O)c1ccc(F)cc1 [Compound 3e] | 0 | – | – | –
6 | Nc1sccc1C(=O)c1ccc(Cl)cc1 [Compound 3f] | 0 | – | – | –
7 | Nc1sccc1C(=O)c1ccc(Br)cc1 [Compound 3g] | 0.8 ± 0.3 | – | – | –
8 | Nc1sccc1C(=O)c1ccc(Cl)c(Cl)c1 [Compound 3h] | 1.7 ± 0.8 | – | – | –
9 | Nc1sccc1C(=O)c1ccc2ccccc2c1 [Compound 3i] | 3.2 ± 1.8 | – | – | –
10 | Cc1sc(N)c(C(=O)c2ccccc2)c1C [Compound 13a, (2-amino-4,5-dimethyl-thiophen-3-yl)(phenyl)methanone] | 9 | – | – | –
11 | Cc1sc(N)c(C(=O)c2cccc(F)c2)c1C [Compound 13b] | 0 | – | – | –
12 | Cc1sc(N)c(C(=O)c2cccc(Cl)c2)c1C [Compound 13c] | 14 ± 1 | – | – | –
13 | Cc1sc(N)c(C(=O)c2cccc(Br)c2)c1C [Compound 13d] | 16 ± 4 | – | – | –
14 | Cc1cccc(C(=O)c2c(N)sc(C)c2C)c1 [Compound 13e] | 18 ± 0.5 | – | – | –
15 | Cc1sc(N)c(C(=O)c2cccc(-c3ccccc3)c2)c1C [Compound 13g] | 12 ± 1.9 | – | – | –
16 | Cc1cc(C)c(C(=O)c2c(N)sc(C)c2C)c(C)c1 [Compound 13h] | 0 | – | – | –
17 | Cc1sc2c(c1C)C(c1cccc(F)c1)=Nc1sc(C)c(C)c1C(c1cccc(F)c1)=N2 [Compound 14, 4,9-bis-(3-fluorophenyl)-2,3,7,8-tetramethyl-1,6-dithia-5,10-diaza-dicyclopenta[a,e]-cyclooctene] | – | lacked AE activity | – | –
18 | Cc1sc(C(=O)O)c(C(=O)c2cccc(C(F)(F)F)c2)c1C [Compound 17b] | 0 | – | – | –
19 | Cc1sc(C(=O)O)c(C(=O)c2ccc(-c3ccccc3)cc2)c1C [Compound 17c] | 0 | – | – | –
20 | CCOC(=O)c1c(N)sc2c1CCC2 [Compound 19a] | 0.4 ± 0.1 | did not support AE activity; also recorded: None of the cycloalkylthiophenes having a 3-carboxyethyl substituent, namely, 19a, 20a and 21a, was active | 72 | –
21 | Nc1sc2c(c1C(=O)c1ccccc1)CCC2 [Compound 19b] | 20 ± 3.6 | – | 63 | –
22 | Nc1sc2c(c1C(=O)c1cccc(Cl)c1)CCC2 [Compound 19c] | 16 ± 2 | – | – | –
23 | Nc1sc2c(c1C(=O)c1ccc(F)cc1)CCC2 [Compound 19e] | 68 ± 1 | – | 36 | –
24 | Nc1sc2c(c1C(=O)c1ccc(Cl)cc1)CCC2 [Compound 19f] | 22 ± 4 | – | 40 | –

Row | Compound | AE Score, % (hA1AR) [%] | AE activity (in words) (hA1AR) | Antagonist activity, % (% inhibition of specific equilibrium binding of [3H]8-cyclopentyl-1,3-dipropylxanthine) (A1AR) [%] | antagonist activity (in words) (A1AR; at 100 μM)
25 | Nc1sc2c(c1C(=O)c1ccc(Br)cc1)CCC2 [Compound 19g] | 70 ± 7 | – | – | –
26 | Nc1sc2c(c1C(=O)c1ccc(-c3ccccc3)cc1)CCC2 [Compound 19h] | 62 ± 5 | – | 12 | –
27 | CCOC(=O)c1c(N)sc2c1CCCC2 [Compound 20a] | 3.5 ± 1.8 | did not support AE activity; also recorded: None of the cycloalkylthiophenes having a 3-carboxyethyl substituent, namely, 19a, 20a and 21a, was active | 57 | –
28 | Nc1sc2c(c1C(=O)c1ccccc1)CCCC2 [Compound 20b] | 19 ± 5 | – | 35 | –
29 | Nc1sc2c(c1C(=O)c1cccc(F)c1)CCCC2 [Compound 20c] | 22 ± 5 | – | 40 | –
30 | Nc1sc2c(c1C(=O)c1cccc(Cl)c1)CCCC2 [Compound 20d] | 70 ± 9 | – | 2 | –
31 | Nc1sc2c(c1C(=O)c1cccc(Br)c1)CCCC2 [Compound 20e] | 49 ± 1 | – | – | –
32 | Nc1sc2c(c1C(=O)c1ccc(F)cc1)CCCC2 [Compound 20f] | 17 ± 3 | – | 51 | –
33 | Nc1sc2c(c1C(=O)c1ccc(Cl)cc1)CCCC2 [Compound 20g] | 68 ± 10 | – | 9 | –
34 | Nc1sc2c(c1C(=O)c1ccc(Br)cc1)CCCC2 [Compound 20h] | 83 ± 5 | – | 56 | –
35 | Nc1sc2c(c1C(=O)c1ccc(I)cc1)CCCC2 [Compound 20i] | 86 ± 13 | – | 31 | –
36 | Cc1ccc(C(=O)c2c(N)sc3c2CCCC3)cc1 [Compound 20j] | 19 ± 7 | – | 41 | –
37 | N#Cc1ccc(C(=O)c2c(N)sc3c2CCCC3)cc1 [Compound 20k] | 19 ± 0.9 | excellent activity | 19 | –
38 | Nc1sc2c(c1C(=O)c1ccc(C3CCCCC3)cc1)CCCC2 [Compound 20m] | 99 ± 6 | – | 45 | –
39 | Nc1sc2c(c1C(=O)c1ccc3ccccc3c1)CCCC2 [Compound 20n] | 86 ± 1 | – | – | –
40 | CCOC(=O)c1c(N)sc2c1CCCCC2 [Compound 21a] | 0.3 ± 0.01 | did not support AE activity; also recorded: None of the cycloalkylthiophenes having a 3-carboxyethyl substituent, namely, 19a, 20a and 21a, was active | 41 | –
41 | Nc1sc2c(c1C(=O)c1ccccc1)CCCCC2 [Compound 21b] | 13 ± 3.8 | – | 0 | –
42 | Nc1sc2c(c1C(=O)c1cccc(Cl)c1)CCCCC2 [Compound 21c] | 65 ± 8 | – | 9 | –
43 | Nc1sc2c(c1C(=O)c1cccc(Br)c1)CCCCC2 [Compound 21d] | 78 ± 2.6 | – | 12 | –
44 | Nc1sc2c(c1C(=O)c1cccc(I)c1)CCCCC2 [Compound 21e] | 86 ± 9 | – | – | –
45 | Nc1sc2c(c1C(=O)c1ccc(F)cc1)CCCCC2 [Compound 21f] | 22 ± 2.7 | – | – | –
46 | Nc1sc2c(c1C(=O)c1ccc(Cl)cc1)CCCCC2 [Compound 21g] | 65 ± 6.7 | – | – | –
47 | Nc1sc2c(c1C(=O)c1ccc(Br)cc1)CCCCC2 [Compound 21h] | 86 ± 3.8 | very high AE activity | 12 | nearly devoid of antagonist activity
48 | COc1ccc(C(=O)c2c(N)sc3c2CCCCC3)cc1 [Compound 21k] | 85 ± 10 | – | – | –
